# Test results from US6509361B1, “1,5-Diaryl substituted pyrazoles as p38 kinase inhibitors” (Pharmacia Corporation, priority 2001, dated 2003).
# Legend:
# human p38 kinase alpha = biological target: T1, human p38 kinase alpha (Homo sapiens, UniProt Q16539); assay: p38 Kinase Assay (in vitro; PHAS-I/32P-ATP format or EGFRP/33P-ATP format); type: biochemical; settings: activated human p38 kinase alpha, 50 μM unlabeled ATP; table does not say which of the two assay formats
# T1 construct: The coding region of the human p38a cDNA was obtained by PCR-amplification from RNA isolated from the human monocyte cell line THP.1; GST (N); made in house; host or cells: E. coli DH10B
# T1 sequence (Q16539 whole entry): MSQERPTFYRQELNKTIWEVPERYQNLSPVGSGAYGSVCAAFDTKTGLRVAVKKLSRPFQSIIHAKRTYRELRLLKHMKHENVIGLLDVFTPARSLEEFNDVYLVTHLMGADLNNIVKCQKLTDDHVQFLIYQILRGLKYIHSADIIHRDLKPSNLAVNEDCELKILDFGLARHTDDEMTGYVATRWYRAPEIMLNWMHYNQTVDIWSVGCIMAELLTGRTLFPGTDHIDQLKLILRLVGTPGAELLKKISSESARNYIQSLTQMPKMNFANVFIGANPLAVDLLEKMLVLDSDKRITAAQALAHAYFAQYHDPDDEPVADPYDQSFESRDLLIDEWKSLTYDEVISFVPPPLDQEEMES
# Procedure: The coding region of the human p38a cDNA was obtained by PCR-amplification from RNA isolated from the human monocyte cell line THP.1. First strand cDNA was synthesized from total RNA as follows: 2 μg of RNA was annealed to 100 ng of random hexamer primers in a 10 μl reaction by heating to 70° C. for 10 minutes followed by 2 minutes on ice. cDNA was then synthesized by adding 1 μl of RNAsin (Promega, Madison Wis.), 2 μl of 50 mM dNTP's, 4 μl of 5×buffer, 2 μl of 100 mM DTT and 1 μl (200 U) of Superscript II™ […] reverse transcriptase. Random primer, dNTP's and Superscript™ reagents were all purchased from Life-Technologies, Gaithersburg, Mass. The reaction was incubated at 42° C. for 1 hour. Amplification of p38 cDNA was performed by aliquoting 5 μl of the reverse transcriptase reaction into a 100 μl PCR reaction containing the following: 80 μl dH2O, 2 μl 50 mM dNTP's, 1 μl each of forward and reverse primers (50 pmol/μl), 10 μl of 10× buffer and 1 μl Expand™ polymerase (Boehringer Mannheim). The PCR primers incorporated Bam HI sites onto the 5′ and 3′ end of the amplified fragment, and were purchased from Genosys. The forward and reverse primers were 5′-[…]-3′ and 5′[…]-3′, respectively. The PCR amplification was carried out in a DNA Thermal Cycler (Perkin Elmer) by repeating 30 cycles of 94° C. for 1 minute, 60° C. for 1 minute and 68° C. for 2 minutes. After amplification, excess primers and unincorporated dNTP's were removed from the amplified fragment with a Wizard™ PCR prep (Promega) and digested with Bam HI (New England Biolabs). The Bam HI digested fragment was ligated into BamHI digested pGEX 2T plasmid DNA (PharmaciaBiotech) using T-4 DNA ligase (New England Biolabs) as described by T. Maniatis, Molecular Cloning: A Laboratory Manual, 2nd ed. (1989). The ligation reaction was transformed into chemically competent E. coli DH10B cells purchased from Life-Technologies following the manufacturer's instructions. Plasmid DNA was isolated from the resulting bacterial colonies using a Promega Wizard™ miniprep kit. Plasmids containing the appropriate Bam HI fragment were sequenced in a DNA Thermal Cycler (Perkin Elmer) with Prism™ (Applied Biosystems Inc.). cDNA clones were identified that coded for both human p38a isoforms (Lee et al. Nature 372, 739). One of the clones which contained the cDNA for p38a-2 (CSBP-2) inserted in the cloning site of pGEX 2T, 3′ of the GST coding region was designated pMON 35802. The sequence obtained for this clone is an exact match of the cDNA clone reported by Lee et al. This expression plasmid allows for the production of a GST-p38a fusion protein.
# Expression of Human p38a:
# GST/p38a fusion protein was expressed from the plasmid pMON 35802 in E. coli, stain DH10B (Life Technologies, Gibco-BRL). Overnight cultures were grown in Luria Broth (LB) containing […] ampicillin. The next day, 500 ml of fresh LB was inoculated with 10 ml of overnight culture, and grown in a 2 liter flask at 37° C. with constant shaking until the culture reached an absorbance of 0.8 at 600 nm. Expression of the fusion protein was induced by addition of isopropyl b-D-thiogalactosidse (IPTG) to a final concentration of 0.05 mM. The cultures were shaken for three hours at room temperature, and the cells were harvested by centrifugation. The cell pellets were stored frozen until protein purification.
# Purification of p38 Kinase-α:
# All chemicals were from Sigma Chemical Co. unless noted. Twenty grams of E. coli cell pellet collected from five 1 L shake flask fermentations was resuspended in a volume of PBS (140 mM NaCl, 2.7 mM KCl, 10 mM Na2HPO4, 1.8 mM KH2PO4, pH 7.3) up to 200 ml. The cell suspension was adjusted to 5 mM DTT with 2 M DTT and then split equally into five 50 ml Falcon conical tubes. The cells were sonnicated (Ultrasonics model W375) with a 1 cm probe for 3×1 minutes (pulsed) on ice. […]
# [1] = system: TNF-a (LPS-stimulated human peripheral blood mononuclear cells); assay: TNF Cell Assay: LPS stimulation of human PBM cells, TNF-a by ELISA; type: cell-based; settings: PBMC, LPS 20 ng/ml, overnight 37° C., compound 10-0.41 μM
# Procedure: Method of Isolation of Human Peripheral Blood Mononuclear Cells:
# Human whole blood was collected in Vacutainer tubes containing EDTA as an anticoagulant. A blood sample (7 ml) was carefully layered over 5 ml PMN Cell Isolation Medium (Robbins Scientific) in a 15 ml round bottom centrifuge tube. The sample was centrifuged at 450-500×g for 30-35 minutes in a swing out rotor at room temperature. After centrifugation, the top band of cells were removed and washed 3 times with PBS w/o calcium or magnesium. The cells were centrifuged at 400×g for 10 minutes at room temperature. The cells were resuspended in Macrophage Serum Free Medium (Gibco BRL) at a concentration of 2 million cells/ml.
# LPS Stimulation of Human PBMS:
# PBM cells (0.1 ml, 2 million/ml) were co-incubated with 0.1 ml compound (10-0.41 μM, final concentration) for 1 hour in flat bottom 96 well microtiter plates. Compounds were dissolved in DMSO initially and diluted in TCM for a final concentration of 0.1% DMSO. LPS (Calbiochem, 20 ng/ml, final concentration) was then added at a volume of 0.010 ml. Cultures were incubated overnight at 37° C. Supernatants were then removed and tested by ELISA for TNF-a and IL1-b. Viability was analyzed using MTS. After 0.1 ml supernatant was collected, 0.020 ml MTS was added to remaining 0.1 ml cells. The cells were incubated at 37° C. for 2-4 hours, then the O.D. was measured at […].
# [2] = system: TNF-α released by U937 cells (human histiocytic lymphoma cell line); assay: U937 Cell Assay: LPS stimulation of TNF production by U937 cells, ELISA; type: cell-based; settings: U-937, differentiated U937 cells, LPS 100 ng/ml, 4 hour incubation
# Procedure: Maintenance and Differentiation of the U937 Human Histiocytic Lymphoma Cell Line:
# U937 cells (ATCC) were propagated in RPMI 1640 containing 10% fetal bovine serum, 100 IU/ml penicillin, 100 μg/ml streptomycin, and 2 mM glutamine (Gibco). Fifty million cells in 100 ml media were induced to terminal monocytic differentiation by 24 hour incubation with 20 ng/ml phorbol 12-myristate 13-acetate (Sigma). The cells were washed by centrifugation (200×g for 5 min) and resuspended in 100 ml fresh medium. After 24-48 hours, the cells were harvested, centrifuged, and resuspended in culture medium at 2 million cells/ml.
# LPS Stimulation of TNF Production by U937 Cells:
# U937 cells (0.1 ml, 2 million/ml) were incubated with 0.1 ml compound (0.004-50 μM, final concentration) for 1 hour in 96 well microtiter plates. Compounds were prepared as 10 mM stock solutions in DMSO and diluted in culture medium to yield a final DMSO concentration of 0.1% in the cell assay. LPS (E. coli, 100 ng/ml final concentration) was then added at a volume of 0.02 ml. After 4 hour incubation at 37° C., the amount of TNF-α released in the culture medium was quantitated by ELISA. Inhibitory potency is expressed as IC50 (μM).
Structure (SMILES),IC50 (human p38 kinase alpha) [µM],IC50 [1] [µM],IC50 [2] [µM],melting point [°C]
"NC(=O)c1cnn(-c2ccc(F)cc2)c1-c1ccncc1 [Example 16, 1-(4-Fluorophenyl)-5-(4-pyridinyl)-1H-pyrazole-4-carboxamide]",7.72,> 10,> 10,215 to 216
Cc1cccc(-n2ncc(C)c2-c2ccncc2)c1 [Example 3],4.9,0.6,0.66,141.77
"Cc1cccc(-n2nc(C)cc2-c2ccnc(C#N)c2)c1 [Example 31, 2-Cyano-4-[1-(3-methylphenyl)-3 methyl-1H-pyrazol-5-yl]pyridine]",0.5,1.7,1.65,128 to 130
CCNc1cc(-c2cc(C)nn2-c2ccc(C)cc2)ccn1 [Example 8],0.07,0.2,0.72,97.15
Cc1cc(-c2ccnc(NCCc3ccccc3)c2)n(-c2ccc(Cl)cc2)n1 [Example 13],0.05,0.1,0.86,–
Cc1cc(-c2ccnc(NCCO)c2)n(-c2ccc(Cl)cc2)n1 [Example 11],0.07,0.1,0.48,137.57
CCNc1cc(-c2ccncc2)n(-c2ccc(F)cc2)n1 [Example 15],> 100,> 10,≥ 10,–
"Cc1cccc(-n2nc(C)cc2-c2cc[nH]c(=O)c2)c1 [Example 23, 4-[1-(3-Methylphenyl)-3-methyl-1H-pyrazol-5-yl]-2-pyridone]",9.55,2.4,≥ 10,182 to 183
"Cc1cccc(-n2nc(C)cc2-c2ccnc(N(C)C)c2)c1 [Example 35, 2-(Dimethylamino)-4-[1-(3-methylphenyl)-3-methyl-1H-pyrazol-5-yl]pyridine]",1.15,3.4,≥ 10,84 to 85
O=C(c1cnn(-c2ccc(F)cc2)c1-c1ccncc1)N1CCNCC1 [Example 17],65.1,> 10,≥ 10,–
Cc1cc(-c2ccnc(NCc3ccccc3)c2)n(-c2ccc(Cl)cc2)n1 [Example 12],0.003,0.3,0.2,105.53
"Cc1cc(-c2ccnc(C#N)c2)n(-c2ccc(F)cc2)n1 [Example 32, 2-Cyano-4-[1-(4-fluorophenyl)-3-methyl-1H-pyrazol-5-yl]pyridine]",2.97,> 10,> 10,94 to 95
Cc1cnn(-c2ccc(F)cc2)c1-c1ccncc1 [Example 1],16.8,0.1,≥ 10,135.86
"COc1cc(-c2cc(C)nn2-c2cccc(C)c2)ccn1 [Example 22, 2-Methoxy-4-[1-(3-methylphenyl)-3-methyl-1H-pyrazol-5-yl]pyridine]",0.079,1.9,1.31,–
"Cc1cccc(-n2nc(C)cc2-c2ccnc(NCCc3ccccc3)c2)c1 [Example 24, 2-(Phenylethylamino)-4-[1-(3-methylphenyl)-3-methyl-1H-pyrazol-5-yl]pyridine]",< 0.01,0.02,0.05,86 to 87
"Fc1ccc(-n2nccc2-c2ccnc(Cl)c2)cc1 [Example 45, 2-Chloro-4-[1-(4-fluorophenyl)-1H-pyrazol-5-yl]pyridine]",1.06,8.1,≥ 10,–
"Cc1cccc(-n2nc(C)cc2-c2ccnc(N(C)Cc3ccccc3)c2)c1 [Example 27, 2-(N-Methylbenzylamino)-4-[1-(3-methylphenyl)-3-methyl-1H-pyrazol-5-yl]pyridine]",> 100,> 10,≥ 10,–
CNc1cc(-c2cc(C)nn2-c2ccc(C)cc2)ccn1 [Example 9],0.29,0.1,17.9,126.34
"Cc1cccc(-n2nc(C)cc2-c2ccnc(OCc3ccccc3)c2)c1 [Example 28, 2-Bezyloxy-4-[1-(3-methylphenyl)-3-methyl-1H-pyrazol-5-yl]pyridine]",0.843,> 10,2.64,–
"Cc1cccc(-n2nc(C)cc2-c2ccnc(NCCO)c2)c1 [Example 26, 2-(2-Hydroxyethylamino)-4-[1-(3-methylphenyl)-3-methyl-1H-pyrazol-5-yl]pyridine]",0.156,0.1,0.21,–
